According to publication PMC5362899, “Structural insights into the nucleotide base specificity of P2X receptors” (Scientific Reports, 2017):

Molecular target: T1, rat P2X4 rT186V mutant (Rattus norvegicus, UniProt P51577, T186V)
T1 construct: rat P2X4 (NP_113782.1; WT and mutants) were transcribed from pGEMHE plasmids; expressed in transfected cells; host or cells: Xenopus laevis oocytes injected with cRNA from pGEMHE
T1 sequence (P51577 1-388 T186V): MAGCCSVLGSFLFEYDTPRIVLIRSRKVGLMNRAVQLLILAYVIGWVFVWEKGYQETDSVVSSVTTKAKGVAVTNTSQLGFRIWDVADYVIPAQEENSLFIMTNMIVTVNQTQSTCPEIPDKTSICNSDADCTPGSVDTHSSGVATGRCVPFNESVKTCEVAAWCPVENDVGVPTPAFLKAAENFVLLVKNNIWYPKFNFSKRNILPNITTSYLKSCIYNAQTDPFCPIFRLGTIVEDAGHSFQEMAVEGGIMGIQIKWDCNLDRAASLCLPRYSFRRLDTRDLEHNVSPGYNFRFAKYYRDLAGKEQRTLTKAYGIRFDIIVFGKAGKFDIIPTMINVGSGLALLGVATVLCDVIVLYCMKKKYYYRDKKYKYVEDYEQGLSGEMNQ
Experiment: Two-Electrode Voltage Clamp recording, rat P2X4 T186V mutant in Xenopus oocytes
Type: cell-based
Details: 3 mM ATP, 3 mM CTP (Fig. S3)
Excerpt: To further investigate the functional roles of the residues involved in the base recognition, T189 and R143, we performed an electrophysiological analysis with the rat P2X4, since its electrophysiological properties have been well established. We first assessed the functional role of T189 in zfP2X4 and introduced mutations at the equivalent residue of the rat P2X4 to create three mutants (^rT186A, ^rT186V and ^rT186S; the superscript “r” means rat P2X4). […] Therefore, we examined the ^rWT and the ^rT186S mutant.
The cRNAs encoding zebrafish P2X4 (NP_705939; WT) and rat P2X4 (NP_113782.1; WT and mutants) were transcribed from pGEMHE plasmids, using a mMessage mMachine® T7 ULTRA kit (Ambion, Huntingdon, Cambridgeshire, UK). Xenopus laevis oocytes were prepared, and RNA (100 ng for zebrafish P2X4, and 20 ng for rat P2X4) was injected into the oocytes. The oocytes were incubated at 18 °C in Barth’s solution, containing 88 mM NaCl, 1 mM KCl, 2.4 mM NaHCO3, 10 mM HEPES, 0.33 mM Ca(NO3)2, 0.41 mM CaCl2, and 0.82 mM MgSO4, pH 7.4, supplemented with 50 μg/ml gentamicin, and were used for recording after 2–3 days. […] Oocytes were held at −70 mV with a bath-clamp amplifier (OC-725C, Warner Co., USA), and macroscopic currents were recorded and analyzed using the pClamp 10 software (Molecular Devices, USA)[33][34]. We measured n = 4 for zebrafish P2X4 data and n = 7–9 for rat P2X4 data. […]

| Structure (SMILES) | nucleotide-evoked currents |
| --- | --- |
| Nc1ncnc2c1ncn2[C@@H]1O[C@H](COP(=O)(O)OP(=O)(O)OP(=O)(O)O)[C@@H](O)[C@H]1O [ATP, Adenosine 5-triphosphate] | no ATP- and CTP-evoked currents were detected |
| Nc1ccn([C@@H]2O[C@H](COP(=O)(O)OP(=O)(O)OP(=O)(O)O)[C@@H](O)[C@H]2O)c(=O)n1 [CTP] | no ATP- and CTP-evoked currents were detected |
